# Patent publication US11306091B2, “Process for producing fluorinated compounds using alcohol solvent having unsaturated hydrocarbon” (FUTURECHEM CO., LTD, priority 2019, dated 2022)
# Experiment: Comparison of solubility of precursor compounds according to the kind of reaction solvents (observation with the naked eye)
# Assay type: physicochemical
# Conditions: for Solubility in 2-methyl-3-butene-2-ol (the present invention), 60° C. / Solubility in 2-methyl-3-butene-2-ol (the present invention), room temp: 1.0 ml 2-methyl-3-butene-2-ol; for Solubility in 2-methyl-3-butene-2-ol (the present invention), 60° C. / Solubility in 2-methyl-3-butyne-2-ol (the present invention), 60° C. / Solubility in t-amyl alcohol (KR 10-0789847), 60° C.: shaking 1 minute at 60° C.; for Solubility in 2-methyl-3-butene-2-ol (the present invention), 60° C. / Solubility in 2-methyl-3-butene-2-ol (the present invention), room temp / Solubility in 2-methyl-3-butyne-2-ol (the present invention), 60° C. / Solubility in 2-methyl-3-butyne-2-ol (the present invention), room temp / Solubility in t-amyl alcohol (KR 10-0789847), 60° C. / Solubility in t-amyl alcohol (KR 10-0789847), room temp: naked eye; for Solubility in 2-methyl-3-butene-2-ol (the present invention), room temp / Solubility in 2-methyl-3-butyne-2-ol (the present invention), room temp / Solubility in t-amyl alcohol (KR 10-0789847), room temp: shaking 1 minute at room temperature; for Solubility in 2-methyl-3-butyne-2-ol (the present invention), 60° C. / Solubility in 2-methyl-3-butyne-2-ol (the present invention), room temp: 1.0 ml 2-methyl-3-butyne-2-ol; for Solubility in t-amyl alcohol (KR 10-0789847), 60° C. / Solubility in t-amyl alcohol (KR 10-0789847), room temp: 1.0 ml t-amyl alcohol; for State of solution dissolved at 60° C. after cooling to room temperature, t-amyl alcohol: cooled to room temperature after the lapse of time; for State of solution dissolved at 60° C. after cooling to room temperature, 2-methyl-3-butene-2-ol / 2-methyl-3-butyne-2-ol: solvents of the present invention, dissolved by heating to 60° C., cooled to room temperature
# Procedure: Experiments for comparing the solubility in the 2-methyl-3-butene-2-ol solvent and 2-methyl-3-butyne-2-ol solvent according to the present invention, and the t-amyl alcohol solvent of the prior art (KE 10-0789847) were performed. Each of the precursors of FP-CIT, FDG, FLT, FMISO and FC119S in solid states was put in a vial, and 1.0 ml of each solvent was added thereto, followed by shaking at room temperature and 60° C. for 1 minutes, respectively, for dissolution.
Compound,"Solubility in 2-methyl-3-butene-2-ol (the present invention), 60° C.","Solubility in 2-methyl-3-butene-2-ol (the present invention), room temp","Solubility in 2-methyl-3-butyne-2-ol (the present invention), 60° C.","Solubility in 2-methyl-3-butyne-2-ol (the present invention), room temp","Solubility in t-amyl alcohol (KR 10-0789847), 60° C.","Solubility in t-amyl alcohol (KR 10-0789847), room temp","State of solution dissolved at 60° C. after cooling to room temperature, t-amyl alcohol","State of solution dissolved at 60° C. after cooling to room temperature, 2-methyl-3-butene-2-ol / 2-methyl-3-butyne-2-ol"
"CN(C(=O)OC(C)(C)C)c1ccc(-c2nc3ccc(OC[C@@H](COS(=O)(=O)c4ccc([N+](=O)[O-])cc4)OC4CCCCO4)cc3s2)cn1 (stereo partly drawn) [FC119S, (2S)-3-((2-(6-((tert-butoxycarbonyl) (methyl)amino)pyridin-3-yl)benzo[d]thiazol-6-yl)oxy)-2-((tetrahydro-2H-pyran-2-yl)oxy)propyl 4-nitrobenzenesulfonate]",Dissolved,Dissolved,Dissolved,Dissolved,Insoluble,Insoluble,,
"Cc1cn([C@H]2C[C@H](OS(=O)(=O)c3ccc([N+](=O)[O-])cc3)[C@@H](COC(c3ccccc3)(c3ccccc3)c3ccccc3)O2)c(=O)n(C(=O)OC(C)(C)C)c1=O [FLT, 3-N-Boc-5′-O-trityl-3′-O-nosyl-thymidine]",Dissolved,Dissolved,Dissolved,Insoluble,Insoluble,Insoluble,,not precipitated as solids
O=[N+]([O-])c1nccn1CC(O)CF (centres unmarked) [FMISO],Dissolved,Insoluble,Dissolved,Dissolved,Dissolved,Insoluble,precipitated again as solids,not precipitated as solids

# Next, values leading:
"Solubility in 2-methyl-3-butene-2-ol (the present invention), 60° C.","Solubility in 2-methyl-3-butene-2-ol (the present invention), room temp","Solubility in 2-methyl-3-butyne-2-ol (the present invention), 60° C.","Solubility in 2-methyl-3-butyne-2-ol (the present invention), room temp","Solubility in t-amyl alcohol (KR 10-0789847), 60° C.","Solubility in t-amyl alcohol (KR 10-0789847), room temp","State of solution dissolved at 60° C. after cooling to room temperature, t-amyl alcohol","State of solution dissolved at 60° C. after cooling to room temperature, 2-methyl-3-butene-2-ol / 2-methyl-3-butyne-2-ol",Compound
Dissolved,Dissolved,,,,,,,CCC(Oc1ccc2ccccc2c1)OS(C)(=O)=O (centres unmarked) [1-(naphthalene-2-yloxy)propyl methanesulfonate]
Dissolved,Dissolved,,,,,,,CS(=O)(=O)OCCCOc1ccc2ccccc2c1 [3-(naphthalene-2-yloxy)propyl methanesulfonate]
Dissolved,Dissolved,Dissolved,Dissolved,Dissolved,Insoluble,precipitated again as solids,,"CC(=O)OC[C@H]1O[C@@H](OC(C)=O)[C@@H](OS(=O)(=O)C(F)(F)F)[C@@H](OC(C)=O)[C@@H]1OC(C)=O [FDG, 1,3,4,6-tetra-O-acetyl-2-O-trifluoro-methanesulfonyl-beta-D-mannopyranose]"
